Test results reported in patent US11584744B2 (UNIVERSITY OF WASHINGTON, priority 2017, dated 2023).
Values after ≈ are worked out from the molar mass of the structure shown. Values joined by “and” are separate entries in the source; they are usually repeats but may differ in a detail not shown here. Identical values can stand only once. Like-named read-outs stand apart in the source and are kept apart here.

What was measured:
[1] = test system: E. faecium VRE (ATCC 51559); experiment: MIC susceptibility testing; type: cell-based, Enterococcus faecium; details: for MIC: Enterococcus faecium
In short: (§1)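 CLSI broth microdilution in triplicate, 5×10^5 CFU/mL final, ≤0.5% DMSO; MHB for S. aureus, CA-MHB for E. coli and E. faecium, CA-MHB plus 3% laked horse blood for S. pyogenes (5% CO2).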

[2] = Protein binding assays, equilibrium dialysis; type: in vitro ADME, mouse; details: 1 μM, equilibrium dialysis 22 hours
Experimental: Protein binding assays: Compound binding to mouse plasma proteins was determined using 96-well equilibrium dialyzer plates (SDIS 9610EN, Nest Group, Inc.). Mouse plasma ([…]-SW-F, BioreclamationIVT, Westbury, N.Y.) containing compound (final concentration 1 μM) was added to a donor chamber as a 150 μL volume. The buffer solution (0.2 mM phosphate buffer, 150 μL) was added to the reciprocal acceptor chamber. Each compound was tested in triplicate. To prepare calibration solution for compound quantifications, blank wells were prepared containing only mouse plasma in a donor well and buffer solution in its acceptor well. The equilibrium dialysis was carried out by rocking the plate for 22 hours in 37° C. Once equilibrium was reached, the plasma and buffer solution from both wells were carefully removed for further analysis with liquid chromatography-tandem mass spectrometry. Plasma solution and internal standard were mixed in the presence of 80% acetonitrile. After centrifuging the solution, the supernatant was transferred to an insert. Similarly, the buffer solution from the acceptor side was prepared containing 40% acetonitrile. Calibration standards for donor and acceptor sides were prepared with compound concentrations of 50 nM, 100 nM, 250 nM, 500 nM, and 1 μM. The compound concentrations from each well were calculated from the calibration curves using Microsoft Excel. The percentage of the test compound bound was determined as follows: % Free=(Concentration buffer chamber/Concentration plasma chamber)×100% % Bound=100%−% Free

[3] = Cytotoxicity testing on mammalian cells (AlamarBlue, 48 hours); type: cell-based; details: human
In short: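 CRL-8155 human lymphoblasts and HepG2 cells exposed to serial compound dilutions for 48 h. Viability read by AlamarBlue in quadruplicate. EC50 from non-linear regression.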

[4] = target: recombinant S. aureus MetRS enzyme (Staphylococcus aureus, UniProt A0A0H2XID2); experiment: Inhibition of SaMetRS, ATP depletion assay; type: biochemical
recombinant S. aureus MetRS enzyme, sequence (A0A0H2XID2 2-657): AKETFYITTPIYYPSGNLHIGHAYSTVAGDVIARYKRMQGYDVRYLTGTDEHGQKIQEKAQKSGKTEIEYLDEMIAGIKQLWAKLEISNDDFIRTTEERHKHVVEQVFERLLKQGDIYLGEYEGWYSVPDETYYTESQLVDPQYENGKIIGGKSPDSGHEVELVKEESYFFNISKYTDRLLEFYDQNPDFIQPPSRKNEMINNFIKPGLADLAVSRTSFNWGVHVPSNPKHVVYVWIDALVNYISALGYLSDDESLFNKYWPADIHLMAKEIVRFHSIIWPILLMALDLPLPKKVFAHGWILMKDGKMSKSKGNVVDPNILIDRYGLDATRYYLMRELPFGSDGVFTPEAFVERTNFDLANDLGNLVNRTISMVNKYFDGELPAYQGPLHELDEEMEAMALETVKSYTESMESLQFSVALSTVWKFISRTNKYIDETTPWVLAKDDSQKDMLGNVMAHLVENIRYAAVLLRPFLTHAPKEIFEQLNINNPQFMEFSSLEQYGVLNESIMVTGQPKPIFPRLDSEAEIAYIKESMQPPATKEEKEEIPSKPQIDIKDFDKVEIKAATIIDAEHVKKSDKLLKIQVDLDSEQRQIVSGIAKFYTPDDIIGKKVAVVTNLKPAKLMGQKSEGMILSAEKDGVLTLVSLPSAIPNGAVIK
In short: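 N-terminal 6-His S. aureus MetRS (25 nM) was pre-incubated 15 min at room temperature with compound, 400 μg/mL E. coli tRNA and pyrophosphatase in HEPES-KOH pH 7.9, 2% DMSO. Reaction started with 150 nM ATP plus 20 μM L-methionine, ran 120 min; remaining ATP read by Kinase-Glo luminescence, IC50 by sigmoidal nonlinear regression.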

S. aureus = experiment: Serum shift assays (MIC with and without 50% human serum); type: cell-based, Staphylococcus aureus; details: for MIC: Staphylococcus aureus
In short: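 MICs run in triplicate with and without 50% heat-inactivated pooled human serum in MHB. Threefold compound dilutions (≤0.5% DMSO), inoculum from 1*10^8 CFUs/mL diluted 1:100, incubated ~20 h at 37° C. MIC = lowest concentration giving ≥90% growth inhibition.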

[5] = test system: S. aureus MSSA (ATCC 29213); experiment: MIC susceptibility testing; type: cell-based, Staphylococcus aureus; details: for MIC: Staphylococcus aureus
[6] = test system: S. aureus MRSA (ATCC 33591); experiment: MIC susceptibility testing; type: cell-based, Staphylococcus aureus; details: for MIC: Staphylococcus aureus
In short: as §1

[7] = read-out: E. faecium VRE (ATCC 51559) MIC
[8] = CRL-8155 cells (human lymphoblasts), read-out: Mamm. cells (CRL8155) CC50
[9] = HepG2 cells (human hepatocellular carcinoma), read-out: Mamm. cells (HepG2) CC50
[10] = recombinant enzyme, lower limit of detection 0.025 μM, read-out: MetRS S. aureus (enzyme) IC50
[11] = 50% human serum, read-out: Avg MIC ± SEM (+50% serum)
[12] = no serum, read-out: Avg MIC ± SEM (no serum)
[13] = 18 h, read-out: S. aureus MSSA (ATCC 29213) MIC
[14] = read-out: S. aureus MRSA (ATCC 33591) MIC
[15] = read-out: (B) MetRS (S. aureus) IC50
[16] = E. faecium ATCC 51559, read-out: (I) E. faecium (ATCC 51559) MIC
[17] = MRSA ATCC33591, read-out: (G) MRSA (ATCC33591) MIC

Row | SMILES | MIC [1, 7] | % binding to mouse plasma [2] | CC50 at 48 h [3, 8] | CC50 at 48 h [3, 9] | IC50 [4, 10] | MIC (S. aureus; [11]) | MIC (S. aureus; [12]) | MIC [5, 13] | MIC [6, 14] | Avg MIC ± SEM (+50% serum) (S. aureus; 50% human serum) | MIC ([5]; read-out: MIC against S. aureus) | IC50 [4, 15] | (I) E. faecium (ATCC 51559) MIC ([1]; E. faecium ATCC 51559) | MIC [1, 16] | (G) MRSA (ATCC33591) MIC ([6]; MRSA ATCC33591) | MIC [6, 17] | (F) S. aureus (ATCC 29213) MIC ([5]; S. aureus ATCC 29213) | MIC ([5]; S. aureus ATCC 29213, read-out: (F) S. aureus (ATCC 29213) MIC)
1 | Fc1ccc2nc(NCCCNCc3cc(Cl)cc(Cl)c3)[nH]c2n1 [Compound 1614, [(3,5-dichlorophenyl)methyl][3-({5-fluoro-3H-imidazo[4,5-b]pyridin-2-yl}amino)propyl]amine] | 0.625 µg/mL (≈ 1.7 µM) | 96.5% | 14.8 µg/mL (≈ 40.2 µM) | > 18.4 µg/mL | < 25 nM | 42.7 ± 4.1 µg/mL | 2.47 ± 0.35 µg/mL | 2.5 µg/mL (≈ 6.79 µM) | 5 µg/mL (≈ 13.6 µM) |  |  |  |  |  |  |  |  | 
2 | Fc1ccc2nc(NCCCN[C@@H]3CCNc4c(Cl)cc(Cl)cc43)[nH]c2n1 [Compound 1717, (4R)-6,8-dichloro—N-[3-({5-fluoro-3H-imidazo[4,5-b]pyridin-2-yl}amino)propyl]-1,2,3,4-tetrahydroquinolin-4-amine, reference compound] | 0.156 µg/mL (≈ 0.381 µM) | 97.6% | 5.8 µg/mL (≈ 14.2 µM) | 10.4 µg/mL (≈ 25.4 µM) | < 25 nM | ~2 µg/mL | 0.088 ± 0.02 µg/mL | 0.156 µg/mL (≈ 0.381 µM) | 0.078 µg/mL (≈ 0.191 µM) | 2.066 ± 0.19 µg/mL | 0.156 µg/mL (≈ 0.381 µM) |  |  |  |  |  |  | 
3 | CCn1c(Cc2ccc(Cl)cc2Cl)cn(Cc2nc3nc(F)ccc3[nH]2)c1=O [Compound 2062, 4-[(2,4-dichlorophenyl)methyl]-3-ethyl-1-({5-fluoro-1H-imidazo[4,5-b]pyridin-2-yl}methyl)-2,3-dihydro-1H-imidazol-2-one] | 0.313 µg/mL (≈ 0.745 µM) | 99.4% | > 21 µg/mL | > 21 µg/mL | < 25 nM | 11.8 ± 4.03 µg/mL | 0.057 ± 0.004 µg/mL | 0.078 µg/mL (≈ 0.186 µM) |  |  |  | < 25 nM |  |  |  |  |  | 
4 | CCn1c(Cc2ccc(OC)cc2Cl)cn(Cc2nc3nc(Cl)ccc3[nH]2)c1=O [Compound 2093, 1-({5-chloro-1H-imidazo[4,5-b]pyridin-2-yl}methyl)-4-[(2-chloro-4-methoxyphenyl)methyl]-3-ethyl-2,3-dihydro-1H-imidazol-2-one] | 0.078 µg/mL (≈ 0.18 µM) | 99.9% | > 21.6 µg/mL | > 21.6 µg/mL | < 25 nM | 9.59 ± 1.71 µg/mL | 0.036 ± 0.01 µg/mL | 0.039 µg/mL (≈ 0.0902 µM) | 0.313 µg/mL (≈ 0.724 µM) |  |  | < 25 nM | 0.0387 µg/mL | 0.0507 µg/mL (≈ 0.117 µM) | 0.225 µg/mL | 0.123 µg/mL (≈ 0.285 µM) |  | 
5 | CCn1c(Cc2ccc(OC)cc2Cl)cn(Cc2nc3nc(F)ccc3[nH]2)c1=O [Compound 2114, 4-[(2-chloro-4-methoxyphenyl)methyl]-3-ethyl-1-({5-fluoro-1H-imidazo[4,5-b]pyridin-2-yl}methyl)-2,3-dihydro-1H-imidazol-2-one] | 0.156 µg/mL (≈ 0.375 µM) |  | > 20.8 µg/mL | > 20.8 µg/mL | < 25 nM |  |  | 0.313 µg/mL (≈ 0.753 µM) |  |  |  | < 25 nM |  |  |  | 1.53 µg/mL (≈ 3.68 µM) | 0.192 µg/mL | 0.129 µg/mL (≈ 0.31 µM)
6 | COc1cc(Cl)c(-c2cccc3nc(Cc4nc5nc(Cl)ccc5[nH]4)cn23)cc1OC [Compound 2144, 2-({5-chloro-1H-imidazo[4,5-b]pyridin-2-yl}methyl)-5-(2-chloro-4,5-dimethoxyphenyl)imidazo[1,2-a]pyridine] | 0.0195 µg/mL (≈ 0.0429 µM) | 98.4% | > 11.3 µg/mL | > 11.3 µg/mL | < 25 nM | ~2 µg/mL | 0.036 ± 0.01 µg/mL | 0.0195 µg/mL (≈ 0.0429 µM) | 0.039 µg/mL (≈ 0.0858 µM) | 2.06 µg/mL and 2.055 ± 0.51 µg/mL |  | < 25 nM | 0.0140, μg/ml | 0.0126 µg/mL (≈ 0.0277 µM) | 0.0216, μg/mL | 0.033 µg/mL (≈ 0.0726 µM) |  | 
7 | CC(=O)NC[C@H]1CN(c2ccc(N3CCOCC3)c(F)c2)C(=O)O1 [LNZ, linezolid] | 1.25 µg/mL (≈ 3.71 µM) | 39.5% | > 33.7 µg/mL | > 33.7 µg/mL | > 10000 nM | 1.89 ± 0.1 µg/mL | 1.57 ± 0.1 µg/mL | 2.5 µg/mL (≈ 7.41 µM) | 1.25 µg/mL (≈ 3.71 µM) |  |  |  |  |  |  |  |  | 
